In the NIST ThermoML archive (doi:10.1021/je050367p):
Where “and” joins values, the source holds several entries; their conditions need not be identical. Equal entries are not always repeated. ± gives the expanded uncertainty stated by the source.

Columns and labels:
[1] = Liquid; for viscosity: Capillary tube (Ostwald / Ubbelohde) method
[2] = refractive index (Na D-line) (dimensionless); details: 101.33 kPa, Liquid, Standard Abbe refractometry
[3] = xn = mol fraction of the nth substance listed; details: Liquid; for viscosity: Capillary tube (Ostwald / Ubbelohde) method
[4] = refractive index (Na D-line) (dimensionless); xn = mol fraction of the nth substance listed; details: 100.8 kPa, Liquid, Standard Abbe refractometry

| Structure (SMILES) | mass density ([1]; 288.15 K, 100.5 kPa) | viscosity ([1]; 288.15 K, 100.5 kPa) | mass density ([1]; 288.15 K, 100.8 kPa) | viscosity ([1]; 288.15 K, 100.8 kPa) | mass density ([1]; 298.15 K, 100.5 kPa) | viscosity ([1]; 298.15 K, 100.5 kPa) | mass density ([1]; 298.15 K, 100.8 kPa) | viscosity ([1]; 298.15 K, 100.8 kPa) | mass density ([1]; 308.15 K, 100.5 kPa) | viscosity ([1]; 308.15 K, 100.5 kPa) | mass density ([1]; 308.15 K, 100.8 kPa) | viscosity ([1]; 308.15 K, 100.8 kPa) | refractive index ([2]; 288.15 K) | refractive index ([2]; 298.15 K) | refractive index ([2]; 308.15 K) | refractive index ([4]; 288.15 K, x2 = 0) | refractive index ([4]; 298.15 K, x2 = 0) | refractive index ([4]; 308.15 K, x2 = 0) | further results |
| --- | --- | --- | --- | --- | --- | --- | --- | --- | --- | --- | --- | --- | --- | --- | --- | --- | --- | --- | --- |
| CC(C)OC(C)C [diisopropyl ether] | 729.09 ± 0.3 kg/m3 | 0.348 ± 0.007 mPa·s | 729.09 ± 0.3 kg/m3 | 0.348 ± 0.007 mPa·s | 718.7 ± 0.3 kg/m3 | 0.313 ± 0.006 mPa·s | 718.7 ± 0.3 kg/m3 | 0.313 ± 0.006 mPa·s | 708.12 ± 0.31 kg/m3 | 0.283 ± 0.006 mPa·s | 708.12 ± 0.31 kg/m3 | 0.283 ± 0.006 mPa·s | 1.37093 ± 0.00032 | 1.36524 ± 0.00032 | 1.35944 ± 0.00032 | – | – | – | – |
| CCO [ethanol] | 793.74 ± 0.23 kg/m3 | 1.309 ± 0.009 mPa·s | 793.74 ± 0.23 kg/m3 | 1.309 ± 0.011 mPa·s | 785.17 ± 0.23 kg/m3 | 1.084 ± 0.009 mPa·s | 785.17 ± 0.23 kg/m3 | 1.084 ± 0.009 mPa·s | 776.49 ± 0.24 kg/m3 | 0.905 ± 0.008 mPa·s | 776.49 ± 0.24 kg/m3 | 0.905 ± 0.008 mPa·s | 1.36342 ± 0.00031 | 1.35924 ± 0.00031 | 1.35502 ± 0.00031 | – | – | – | – |
| CCO [ethanol] + CC(C)OC(C)C | – | – | – | – | – | – | – | – | – | – | – | – | – | – | – | 1.36342 ± 0.00031 | 1.35924 ± 0.00031 | 1.35502 ± 0.00031 | viscosity ([3]; 288.15 K, 100.5 kPa, x2 = 0): 1.309 ± 0.009 mPa·s; mass density ([3]; 288.15 K, 100.5 kPa, x2 = 0): 793.74 ± 0.23 kg/m3; viscosity ([3]; 298.15 K, 100.5 kPa, x2 = 0): 1.084 ± 0.009 mPa·s; mass density ([3]; 298.15 K, 100.5 kPa, x2 = 0): 785.17 ± 0.23 kg/m3; viscosity ([3]; 308.15 K, 100.5 kPa, x2 = 0): 0.905 ± 0.008 mPa·s; mass density ([3]; 308.15 K, 100.5 kPa, x2 = 0): 776.49 ± 0.24 kg/m3 |
| CC(C)CC(C)(C)C [2,2,4-trimethylpentane] | – | – | 695.95 ± 0.31 kg/m3 | 0.537 ± 0.007 mPa·s | – | – | 687.74 ± 0.31 kg/m3 | 0.48 ± 0.007 mPa·s | – | – | 679.43 ± 0.32 kg/m3 and 679.41 ± 0.32 kg/m3 | 0.432 ± 0.007 mPa·s | 1.39404 ± 0.00031 | 1.389 ± 0.00031 | 1.38395 ± 0.00031 | – | – | – | – |
| CCO [ethanol] + CC(C)CC(C)(C)C | – | – | – | – | – | – | – | – | – | – | – | – | – | – | – | – | – | – | viscosity ([3]; 288.15 K, 100.8 kPa, x1 = 1): 1.309 ± 0.011 mPa·s; mass density ([3]; 288.15 K, 100.8 kPa, x1 = 1): 793.74 ± 0.23 kg/m3; viscosity ([3]; 298.15 K, 100.8 kPa, x1 = 1): 1.084 ± 0.009 mPa·s; mass density ([3]; 298.15 K, 100.8 kPa, x1 = 1): 785.17 ± 0.23 kg/m3; viscosity ([3]; 308.15 K, 100.8 kPa, x1 = 1): 0.905 ± 0.008 mPa·s; mass density ([3]; 308.15 K, 100.8 kPa, x1 = 1): 776.49 ± 0.24 kg/m3; refractive index ([4]; 288.15 K, x1 = 1): 1.36342 ± 0.00031; refractive index ([4]; 298.15 K, x1 = 1): 1.35924 ± 0.00031; refractive index ([4]; 308.15 K, x1 = 1): 1.35502 ± 0.00031 |
| CC(C)CC(C)(C)C [2,2,4-trimethylpentane] + CC(C)OC(C)C | – | – | – | – | – | – | – | – | – | – | – | – | – | – | – | 1.39404 ± 0.00031 | 1.389 ± 0.00031 | 1.38395 ± 0.00031 | viscosity ([3]; 288.15 K, 100.8 kPa, x2 = 0): 0.537 ± 0.007 mPa·s; mass density ([3]; 288.15 K, 100.8 kPa, x2 = 0): 695.95 ± 0.31 kg/m3; viscosity ([3]; 298.15 K, 100.8 kPa, x2 = 0): 0.48 ± 0.007 mPa·s; mass density ([3]; 298.15 K, 100.8 kPa, x2 = 0): 687.74 ± 0.31 kg/m3; viscosity ([3]; 308.15 K, 100.8 kPa, x2 = 0): 0.432 ± 0.007 mPa·s; mass density ([3]; 308.15 K, 100.8 kPa, x2 = 0): 679.43 ± 0.32 kg/m3 |
